In brackets after ≈: the same amount, converted by molar mass. Like-named read-outs stand apart in the source and are kept apart here.
Experiments:
[1] = system: Septoria tritici (St); experiment: Growth inhibition assay of fungal pathogens, St; type: cell-based; settings: Zymoseptoria tritici, 48 h
Method in brief: (§1)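 Spores from sub-cultured plates were diluted in 17% V8 liquid medium and exposed to compound from DMSO stocks at final concentrations of 50, 10 and 2 ppm or 2, 0.4 and 0.08 ppm. OD600 and visual ratings at 48 h were compared with the 2% DMSO control to give percent growth inhibition.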

[2] = system: Collectotrichum graminicola (Cg); experiment: Growth inhibition assay of fungal pathogens, Cg; type: cell-based; settings: 48 h
Method in brief: as §1

[3] = system: C. albicans; experiment: Antifungal Activity Assay (broth microtiter MIC), C. albicans; type: cell-based, Candida albicans; settings: Candida albicans, ATCC90028, 48 h
Method in brief: (§2)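 Broth microdilution per CLSI M27-A3 in RPMI 1640+MOPS, inoculum 2.5×10^3 CFU/mL final from overnight Sabouraud dextrose agar cultures at 35° C. Compounds diluted from DMSO stock to 128 μg/mL in water. MIC read visually versus growth control at 48 h.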

[4] = system: C. krusei; experiment: Antifungal Activity Assay (broth microtiter MIC), C. krusei; type: cell-based, Candida krusei; settings: Pichia kudriavzevii, ATCC6258, 48 h
Method in brief: as §2

[5] = system: Fusarium moniliforme (Fm); experiment: Growth inhibition assay of fungal pathogens, Fm; type: cell-based; settings: for IC90: Fusarium verticillioides, 48 h, read-out: Concentration at 90% Inhibition Fm
Method in brief: as §1

[6] = system: Diplodia maydis (Dm); experiment: Growth inhibition assay of fungal pathogens, Dm; type: cell-based; settings: Stenocarpella maydis, 48 h
Method in brief: as §1

[7] = system: Fusarium virguliforme (Fv); experiment: Growth inhibition assay of fungal pathogens, Fv; type: cell-based; settings: 48 h
Method in brief: as §1

[8] = molecular target: fungal (fACC2) (UniProt Q00955); settings: read-out: fACC2 (in vitro ACC2 Inhibition Assay, IC50), ADP-Glo, 5 nM ACC2, 20 μM ATP, 20 μM acetyl-CoA
Chain of fungal (fACC2) (Q00955 whole entry): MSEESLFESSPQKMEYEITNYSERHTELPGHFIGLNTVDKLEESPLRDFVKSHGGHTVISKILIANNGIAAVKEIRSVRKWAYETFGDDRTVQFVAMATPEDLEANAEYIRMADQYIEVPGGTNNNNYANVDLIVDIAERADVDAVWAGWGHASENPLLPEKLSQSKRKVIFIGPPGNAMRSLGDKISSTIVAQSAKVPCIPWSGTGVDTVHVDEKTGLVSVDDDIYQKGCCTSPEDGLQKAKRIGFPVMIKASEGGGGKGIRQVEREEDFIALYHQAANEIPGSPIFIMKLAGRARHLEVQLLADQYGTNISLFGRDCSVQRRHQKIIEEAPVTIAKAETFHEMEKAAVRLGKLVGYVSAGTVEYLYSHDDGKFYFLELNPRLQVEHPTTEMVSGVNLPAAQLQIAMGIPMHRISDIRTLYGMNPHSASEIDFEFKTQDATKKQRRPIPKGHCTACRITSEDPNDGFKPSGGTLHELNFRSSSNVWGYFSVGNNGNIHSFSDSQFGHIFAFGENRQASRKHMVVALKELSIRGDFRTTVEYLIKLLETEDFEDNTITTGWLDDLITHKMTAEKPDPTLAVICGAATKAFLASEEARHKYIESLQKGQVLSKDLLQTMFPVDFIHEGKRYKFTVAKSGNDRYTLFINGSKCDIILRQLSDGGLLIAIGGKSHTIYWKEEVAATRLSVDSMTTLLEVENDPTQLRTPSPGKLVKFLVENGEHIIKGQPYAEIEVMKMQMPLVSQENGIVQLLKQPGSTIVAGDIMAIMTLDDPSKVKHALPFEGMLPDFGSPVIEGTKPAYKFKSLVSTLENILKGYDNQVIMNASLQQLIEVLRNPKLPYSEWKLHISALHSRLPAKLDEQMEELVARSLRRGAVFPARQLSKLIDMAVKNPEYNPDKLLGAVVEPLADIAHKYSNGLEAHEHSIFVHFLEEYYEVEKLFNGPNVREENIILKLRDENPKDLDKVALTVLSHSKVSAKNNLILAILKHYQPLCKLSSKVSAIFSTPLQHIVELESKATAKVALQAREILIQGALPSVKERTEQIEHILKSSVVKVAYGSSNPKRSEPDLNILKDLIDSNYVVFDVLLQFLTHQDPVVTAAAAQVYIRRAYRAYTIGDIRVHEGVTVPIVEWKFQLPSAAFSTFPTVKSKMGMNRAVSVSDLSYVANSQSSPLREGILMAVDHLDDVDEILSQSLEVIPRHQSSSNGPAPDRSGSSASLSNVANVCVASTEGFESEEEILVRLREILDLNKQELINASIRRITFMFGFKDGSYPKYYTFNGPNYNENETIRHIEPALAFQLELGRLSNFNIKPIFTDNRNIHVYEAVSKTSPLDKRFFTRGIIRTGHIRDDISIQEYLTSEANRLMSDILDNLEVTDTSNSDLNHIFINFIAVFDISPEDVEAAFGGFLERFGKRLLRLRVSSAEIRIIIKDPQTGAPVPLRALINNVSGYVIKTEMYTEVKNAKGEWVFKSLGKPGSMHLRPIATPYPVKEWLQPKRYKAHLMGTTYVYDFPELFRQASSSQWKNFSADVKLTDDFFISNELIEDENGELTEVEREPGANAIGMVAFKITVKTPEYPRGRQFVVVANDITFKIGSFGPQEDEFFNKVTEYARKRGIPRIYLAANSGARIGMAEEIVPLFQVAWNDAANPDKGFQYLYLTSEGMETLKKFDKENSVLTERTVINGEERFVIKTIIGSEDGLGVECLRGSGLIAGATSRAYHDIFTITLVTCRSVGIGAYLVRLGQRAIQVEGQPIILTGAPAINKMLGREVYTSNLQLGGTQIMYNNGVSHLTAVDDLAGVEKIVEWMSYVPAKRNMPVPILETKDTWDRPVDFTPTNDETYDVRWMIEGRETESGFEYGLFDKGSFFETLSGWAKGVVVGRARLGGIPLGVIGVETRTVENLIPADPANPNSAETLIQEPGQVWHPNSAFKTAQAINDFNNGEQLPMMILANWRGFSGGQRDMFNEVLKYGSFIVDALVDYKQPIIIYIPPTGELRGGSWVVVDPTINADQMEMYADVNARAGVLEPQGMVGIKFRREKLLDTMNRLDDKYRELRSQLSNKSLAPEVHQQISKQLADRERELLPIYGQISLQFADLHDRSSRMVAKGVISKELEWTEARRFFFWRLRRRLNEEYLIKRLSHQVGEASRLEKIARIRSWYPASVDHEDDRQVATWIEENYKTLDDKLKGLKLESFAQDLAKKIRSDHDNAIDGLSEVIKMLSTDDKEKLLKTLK

[9] = system: Rhizoctonia solani (Rs); experiment: Growth inhibition assay of fungal pathogens, Rs; type: cell-based; settings: 48 h
[10] = system: C. parapsilosis; experiment: Antifungal Activity Assay (broth microtiter MIC), C. parapsilosis; type: cell-based, Candida parapsilosis; settings: Lodderomyces parapsilosis, ATCC22019, 48 h
Method in brief: as §2

[11] = system: Botrtyis cinerea (Bc); experiment: Growth inhibition assay of fungal pathogens, Bc; type: cell-based; settings: 48 h
Method in brief: as §1

[12] = read-out: Concentration at 90% Inhibition St, Septoria tritici, growth inhibition at 48 hours vs 2% DMSO control
[13] = read-out: Concentration at 90% Inhibition St, Septoria tritici, growth inhibition vs 2% DMSO control at 48 hours
[14] = read-out: Concentration at 90% Inhibition Cg, Collectotrichum graminicola, growth inhibition at 48 hours vs 2% DMSO control
[15] = read-out: Concentration at 90% Inhibition Cg, Collectotrichum graminicola, growth inhibition vs 2% DMSO control at 48 hours
[16] = read-out: MIC, C. albicans ATCC 90028, Table 3a, 3 replicates, MIC recorded at 48 h
[17] = read-out: MIC, C. albicans ATCC 90028, Table 3b (additional results), 3 replicates, MIC recorded at 48 h
[18] = read-out: MIC, C. krusei ATCC 6258, Table 3a, 3 replicates, MIC recorded at 48 h
[19] = read-out: MIC, C. krusei ATCC 6258, Table 3b (additional results), 3 replicates, MIC recorded at 48 h
[20] = Fusarium moniliforme, growth inhibition at 48 hours vs 2% DMSO control
[21] = read-out: Concentration at 90% Inhibition Dm, Diplodia maydis, growth inhibition at 48 hours vs 2% DMSO control
[22] = read-out: Concentration at 90% Inhibition Dm, Diplodia maydis, growth inhibition vs 2% DMSO control at 48 hours
[23] = read-out: Concentration at 90% Inhibition Fv, Fusarium virguliforme, growth inhibition at 48 hours vs 2% DMSO control
[24] = read-out: Concentration at 90% Inhibition Fv, Fusarium virguliforme, growth inhibition vs 2% DMSO control at 48 hours
[25] = read-out: Concentration at 90% Inhibition Rs, Rhizoctonia solani, mycelial plugs, growth inhibition at 48 hours vs 2% DMSO control
[26] = read-out: Concentration at 90% Inhibition Rs, Rhizoctonia solani, mycelial plugs, growth inhibition vs 2% DMSO control at 48 hours
[27] = read-out: MIC, C. parapsilosis ATCC 22019, Table 3a, 3 replicates, MIC recorded at 48 h
[28] = read-out: MIC, C. parapsilosis ATCC 22019, Table 3b (additional results), 3 replicates, MIC recorded at 48 h
[29] = read-out: Concentration at 90% Inhibition Bc, Botrtyis cinerea, growth inhibition at 48 hours vs 2% DMSO control
[30] = read-out: Concentration at 90% Inhibition Bc, Botrtyis cinerea, growth inhibition vs 2% DMSO control at 48 hours

Compound | IC90 [1, 12] | IC90 [1, 13] | IC90 [2, 14] | IC90 [2, 15] | MIC [3, 16] | MIC [3, 17] | MIC [4, 18] | MIC [4, 19] | Concentration at 90% Inhibition Fm [5, 20] | IC90 [5] | IC90 [6, 21] | IC90 [6, 22] | IC90 [7, 23] | IC90 [7, 24] | IC50 ([8]; Table 2a) | IC50 ([8]; Table 2b, additional results) | IC90 [9, 25] | IC90 [9, 26] | MIC [10, 27] | MIC [10, 28] | further results
COc1ccc(F)cc1[C@H](Cn1c(=O)n(C(C)(C)C(=O)NC2CCCCC2)c(=O)c2c(C)c(-n3nccn3)sc21)OC1CCOCC1 [Compound I-28, (R)—N-cyclohexyl-2-(1-(2-(5-fluoro-2-methoxyphenyl)-2-((tetrahydro-2H-pyran-4-yl)oxy)ethyl)-5-methyl-2,4-dioxo-6-(2H-1,2,3-triazol-2-yl)-1,4-dihydrothieno[2,3-d]pyrimidin-3(2H)-yl)-2-methylpropanamide] | 2 µg/mL (≈ 2.99 µM) | 10 µg/mL (≈ 15 µM) | 2 µg/mL (≈ 2.99 µM) | 2 µg/mL (≈ 2.99 µM) | 0.25 to 1 µg/mL (≈ 0.374 to 1.5 µM) | 0.25 to 1 µg/mL (≈ 0.374 to 1.5 µM) | 0.06 to 0.24 µg/mL (≈ 0.0897 to 0.359 µM) | 0.06 to 0.249 µg/mL (≈ 0.0897 to 0.372 µM) | AA (compound concentration of 0.08 ppm at 90% inhibition of fungal pathogens) | 0.08 µg/mL (≈ 0.12 µM) | 0.4 µg/mL (≈ 0.598 µM) | 0.4 µg/mL (≈ 0.598 µM) | 0.4 µg/mL (≈ 0.598 µM) | 0.4 µg/mL (≈ 0.598 µM) | 1 to 5 nM | 1 to 5 nM | 0.4 µg/mL (≈ 0.598 µM) | 0.4 µg/mL (≈ 0.598 µM) | 0.25 to 1 µg/mL (≈ 0.374 to 1.5 µM) | 0.25 to 1 µg/mL (≈ 0.374 to 1.5 µM) | IC90 [11, 29]: 0.4 µg/mL (≈ 0.598 µM); IC90 [11, 30]: 0.4 µg/mL (≈ 0.598 µM)
COc1ccc(F)cc1[C@H](Cn1c(=O)n(C(C)(C)C(=O)NCC(C)C)c(=O)c2c(C)c(-n3nccn3)sc21)OC1CCOCC1 [Compound I-29, (R)-2-(1-(2-(5-fluoro-2-methoxyphenyl)-2-((tetrahydro-2H-pyran-4-yl)oxy)ethyl)-5-methyl-2,4-dioxo-6-(2H-1,2,3-triazol-2-yl)-1,4-dihydro-thieno[2,3-d]pyrimidin-3(2H)-yl)-N-isobutyl-2-methylpropanamide] |  |  |  |  |  |  |  |  |  |  |  |  |  |  | 1 to 5 nM | 1 to 5 nM |  |  |  |  | IC90 ([1]; Septoria tritici, growth inhibition at 48 hours vs 2% DMSO control, read-out: Concentration at 90% Inhibition St): 10 µg/mL (≈ 15.6 µM); IC90 ([1]; Septoria tritici, growth inhibition vs 2% DMSO control at 48 hours, read-out: Concentration at 90% Inhibition St): > 50 µg/mL; IC90 ([2]; Collectotrichum graminicola, growth inhibition at 48 hours vs 2% DMSO control, read-out: Concentration at 90% Inhibition Cg): 0.4 µg/mL (≈ 0.622 µM); IC90 ([2]; Collectotrichum graminicola, growth inhibition vs 2% DMSO control at 48 hours, read-out: Concentration at 90% Inhibition Cg): 0.4 µg/mL (≈ 0.622 µM); MIC ([3]; Table 3a, ATCC 90028, 3 replicates, MIC recorded at 48 h, read-out: MIC, C. albicans ATCC 90028): 0.25 to 1 µg/mL (≈ 0.389 to 1.56 µM); MIC ([3]; Table 3b (additional results), ATCC 90028, 3 replicates, MIC recorded at 48 h, read-out: MIC, C. albicans ATCC 90028): 0.06 to 0.249 µg/mL (≈ 0.0933 to 0.387 µM); MIC ([4]; Table 3a, ATCC 6258, 3 replicates, MIC recorded at 48 h, read-out: MIC, C. krusei ATCC 6258): 0.06 to 0.24 µg/mL (≈ 0.0933 to 0.373 µM); MIC ([4]; Table 3b (additional results), ATCC 6258, 3 replicates, MIC recorded at 48 h, read-out: MIC, C. krusei ATCC 6258): 0.06 to 0.249 µg/mL (≈ 0.0933 to 0.387 µM); IC90 [5, 20]: 0.08 µg/mL (≈ 0.124 µM); IC90 ([5]; Fusarium moniliforme, growth inhibition vs 2% DMSO control at 48 hours): 0.08 µg/mL (≈ 0.124 µM); IC90 ([6]; Diplodia maydis, growth inhibition at 48 hours vs 2% DMSO control, read-out: Concentration at 90% Inhibition Dm): 0.4 µg/mL (≈ 0.622 µM); IC90 ([6]; Diplodia maydis, growth inhibition vs 2% DMSO control at 48 hours, read-out: Concentration at 90% Inhibition Dm): 0.4 µg/mL (≈ 0.622 µM); IC90 ([7]; growth inhibition at 48 hours vs 2% DMSO control, read-out: Concentration at 90% Inhibition Fv): 0.4 µg/mL (≈ 0.622 µM); IC90 ([7]; growth inhibition vs 2% DMSO control at 48 hours, read-out: Concentration at 90% Inhibition Fv): 0.4 µg/mL (≈ 0.622 µM); IC90 ([9]; mycelial plugs, growth inhibition at 48 hours vs 2% DMSO control, read-out: Concentration at 90% Inhibition Rs): 2 µg/mL (≈ 3.11 µM); IC90 ([9]; mycelial plugs, growth inhibition vs 2% DMSO control at 48 hours, read-out: Concentration at 90% Inhibition Rs): 2 µg/mL (≈ 3.11 µM); MIC ([10]; Table 3a, ATCC 22019, 3 replicates, MIC recorded at 48 h, read-out: MIC, C. parapsilosis ATCC 22019): 0.25 to 1 µg/mL (≈ 0.389 to 1.56 µM); MIC ([10]; Table 3b (additional results), ATCC 22019, 3 replicates, MIC recorded at 48 h, read-out: MIC, C. parapsilosis ATCC 22019): 0.25 to 1 µg/mL (≈ 0.389 to 1.56 µM); IC90 ([11]; Botrtyis cinerea, growth inhibition at 48 hours vs 2% DMSO control, read-out: Concentration at 90% Inhibition Bc): 0.4 µg/mL (≈ 0.622 µM); IC90 ([11]; Botrtyis cinerea, growth inhibition vs 2% DMSO control at 48 hours, read-out: Concentration at 90% Inhibition Bc): 0.4 µg/mL (≈ 0.622 µM)
COc1ccc(F)cc1[C@H](Cn1c(=O)n(C(C)(C)C(=O)N2CCCCC2)c(=O)c2c(C)c(-n3nccn3)sc21)OC1CCC(=O)CC1 [Compound I-34, (R)-1-(2-(5-fluoro-2-methoxyphenyl)-2-((4-oxocyclohexyl)oxy)ethyl)-5-methyl-3-(2-methyl-1-oxo-1-(piperidin-1-yl)propan-2-yl)-6-(2H-1,2,3-triazol-2-yl)thieno[2,3-d]pyrimidine-2,4(1H,3H)-dione] | > 50 µg/mL | > 50 µg/mL | 0.4 µg/mL (≈ 0.6 µM) | 0.4 µg/mL (≈ 0.6 µM) | 0.25 to 1 µg/mL (≈ 0.375 to 1.5 µM) | 0.25 to 1 µg/mL (≈ 0.375 to 1.5 µM) | 0.25 to 1 µg/mL (≈ 0.375 to 1.5 µM) | 1.01 to 2 µg/mL (≈ 1.51 to 3 µM) | AA (compound concentration of 0.08 ppm at 90% inhibition of fungal pathogens) | 0.08 µg/mL (≈ 0.12 µM) | 2 µg/mL (≈ 3 µM) | 2 µg/mL (≈ 3 µM) | 0.4 µg/mL (≈ 0.6 µM) | 0.4 µg/mL (≈ 0.6 µM) | 1 to 5 nM | 1 to 5 nM | 2 µg/mL (≈ 3 µM) | 2 µg/mL (≈ 3 µM) | 0.25 to 1 µg/mL (≈ 0.375 to 1.5 µM) | 0.25 to 1 µg/mL (≈ 0.375 to 1.5 µM) | IC90 [11, 29]: 0.4 µg/mL (≈ 0.6 µM); IC90 [11, 30]: 0.4 µg/mL (≈ 0.6 µM)

— patent US10800791B2, “Triazole ACC inhibitors and uses thereof” (Gilead Apollo, LLC, priority 2015, dated 2020)
